The conditions of data set [1]: human, in vivo; cited from earlier work.
Another data set concerns the target PARP (Mus musculus, UniProt P11103). The experiment in a line: whole cell PARP inhibition in UV-activated RAW 264.7 macrophages, PARP activity by ELISA. The format is cell-based.
The next data set has as its system tuberculosis. As to conditions: systemically delivered, despite significant plasma levels; cited from earlier work.
The conditions of data set [2]: in vivo; cited from earlier work.
The test system of the next data set is RAW 264.7 macrophages. As to conditions: PARP inhibition; cited from earlier work.

We go through 3 compounds from patent publication US20200009143A1, “REPURPOSING OF CANCER DRUGS FOR TREATMENT OF MYCOBACTERIUM” (STC.UNM, priority 2016, published 2020).

Each structure is given as a SMILES string.

Sequence of PARP (P11103 2-1013): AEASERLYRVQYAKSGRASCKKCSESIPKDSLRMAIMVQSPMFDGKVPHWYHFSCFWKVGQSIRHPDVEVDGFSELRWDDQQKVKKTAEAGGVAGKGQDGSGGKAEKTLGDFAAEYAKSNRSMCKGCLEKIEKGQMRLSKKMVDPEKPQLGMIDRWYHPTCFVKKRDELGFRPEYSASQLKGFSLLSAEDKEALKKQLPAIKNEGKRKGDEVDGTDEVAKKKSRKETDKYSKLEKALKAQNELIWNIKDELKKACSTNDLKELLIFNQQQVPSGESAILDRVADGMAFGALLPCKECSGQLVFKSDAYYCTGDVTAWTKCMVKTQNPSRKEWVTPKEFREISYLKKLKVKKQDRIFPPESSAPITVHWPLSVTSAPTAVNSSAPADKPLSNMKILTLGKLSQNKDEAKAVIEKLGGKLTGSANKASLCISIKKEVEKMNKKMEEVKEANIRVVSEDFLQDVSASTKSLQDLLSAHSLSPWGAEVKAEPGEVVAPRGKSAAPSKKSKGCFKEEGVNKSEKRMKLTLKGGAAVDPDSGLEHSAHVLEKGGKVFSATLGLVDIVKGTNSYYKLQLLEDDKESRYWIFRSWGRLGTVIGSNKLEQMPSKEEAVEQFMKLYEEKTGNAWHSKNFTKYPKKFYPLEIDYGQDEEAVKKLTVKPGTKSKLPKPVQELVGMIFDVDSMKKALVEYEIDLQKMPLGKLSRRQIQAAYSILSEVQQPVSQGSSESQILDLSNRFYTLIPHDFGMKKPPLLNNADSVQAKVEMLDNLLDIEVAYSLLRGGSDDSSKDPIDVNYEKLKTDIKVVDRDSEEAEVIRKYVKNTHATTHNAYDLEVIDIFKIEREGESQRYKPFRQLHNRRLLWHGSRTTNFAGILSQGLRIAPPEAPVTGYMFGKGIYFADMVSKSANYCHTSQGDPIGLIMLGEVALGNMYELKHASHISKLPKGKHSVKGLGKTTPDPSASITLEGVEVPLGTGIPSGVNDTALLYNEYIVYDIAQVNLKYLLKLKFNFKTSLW

Turning to `NC(=O)c1cnccn1` [PZA, pyrazinamide], in data set [1], the “steady state peak plasma level” value is listed as “about 500 μM”.

Consider `O=C(O)c1cnccn1` [POA, pyrazinoic acid], for which the “PARP inhibition (in words)” value on PARP (at levels readily achieved during conventional PZA therapy) was “potent inhibitor”. Also, the “ratio of plasma Cmax/IC50” value on PARP (known peak plasma level in TB patients over whole-cell PARP IC50) is given as 20. In addition, the efficacy in vivo result in the data set with tuberculosis is reported as “ineffective”. For the same compound, the “steady state peak plasma level” value in data set [1] is 300 µM. The “distribution in human granulomas” value in data set [2] was “wide distribution”.

On to `NC(=O)c1cccc(N)c1` [3-aminobenzamide], for which the “inhibition of mycobacteria-induced macrophage necrosis” value with RAW 264.7 macrophages is reported as “strongly inhibited”.
